From PubChem BioAssay AID248 (DTP/NCI, 2004)
Several values for one entry are separate records, joined by “and”; a condition that tells them apart may be missing. Equal entries are not always repeated. Inconclusive results and toxic doses are left out. Rule as the data show it: active = T/C of 150% or more; inactive = T/C below 125%.

System: L1210 leukemia ip in BDF1 mice, survival T/C
Assay: NCI In Vivo Anticancer Drug Screen. Data for tumor model L1210 Leukemia (intraperitoneal) in B6D2F1 (BDF1) mice
Details: endpoint: mean survival time, higher = longer survival
Procedure, shortened: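 Tumor cells were implanted, animals were treated, and survival was followed. The result divides the treated measurement by the vehicle-control measurement.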

[1] = dose: 50.0 mg/kg/injection, schedule: Q04DX003 (ip), vehicle: saline
[2] = dose: 100.0 mg/kg/injection, schedule: Q01DX001 (ip), vehicle: saline
[3] = dose: 100.0 mg/kg/injection, schedule: Q04DX003 (ip), vehicle: saline
[4] = dose: 200.0 mg/kg/injection, schedule: Q01DX001 (ip), vehicle: saline
[5] = dose: 200.0 mg/kg/injection, schedule: Q04DX003 (ip), vehicle: saline
[6] = dose: 400.0 mg/kg/injection, schedule: Q01DX001 (ip), vehicle: saline
[7] = dose: 12.5 mg/kg/injection, schedule: Q01DX009 (ip), vehicle: Klucel (hydroxypropylcellulose) (HPC)
[8] = dose: 25.0 mg/kg/injection, schedule: Q01DX009 (ip), vehicle: Klucel (hydroxypropylcellulose) (HPC)
[9] = dose: 100.0 mg/kg/injection, schedule: Q01DX009 (ip), vehicle: Klucel (hydroxypropylcellulose) (HPC)
[10] = dose: 100.0 mg/kg/injection, schedule: Q01DX001 (ip), vehicle: other
[11] = dose: 200.0 mg/kg/injection, schedule: Q01DX001 (ip), vehicle: other
[12] = dose: 400.0 mg/kg/injection, schedule: Q01DX001 (ip), vehicle: other
[13] = dose: 100.0 mg/kg/injection, schedule: Q01DX009 (ip), vehicle: saline with Tween-80

Measured: T/C

O=C(C#Cc1ccccc1)c1ccccc1
inactive: dose: 5.0 mg/kg/injection, schedule: Q01DX009 (ip), vehicle: Klucel (hydroxypropylcellulose) (HPC) 98 % of control | dose: 5.0 mg/kg/injection, schedule: Q04DX003 (ip), vehicle: Klucel (hydroxypropylcellulose) (HPC) 101 % of control | dose: 10.0 mg/kg/injection, schedule: Q01DX009 (ip), vehicle: Klucel (hydroxypropylcellulose) (HPC) 96 % of control | dose: 10.0 mg/kg/injection, schedule: Q04DX003 (ip), vehicle: Klucel (hydroxypropylcellulose) (HPC) 103 % of control | dose: 20.0 mg/kg/injection, schedule: Q01DX001 (ip), vehicle: Klucel (hydroxypropylcellulose) (HPC) 96 % of control | dose: 20.0 mg/kg/injection, schedule: Q01DX009 (ip), vehicle: Klucel (hydroxypropylcellulose) (HPC) 102 % of control | dose: 20.0 mg/kg/injection, schedule: Q04DX003 (ip), vehicle: Klucel (hydroxypropylcellulose) (HPC) 104 % of control

CC[n+]1ccc(-c2ccc(S(=O)(=O)[O-])cc2)o1
inactive: [1] 108 % of control | dose: 100.0 mg/kg/injection, schedule: Q01DX001 (ip), vehicle: carboxymethylcellulose (CMC) 96 % of control | [2] 105 % of control | [3] 93 % of control | dose: 200.0 mg/kg/injection, schedule: Q01DX001 (ip), vehicle: carboxymethylcellulose (CMC) 96 % of control | [4] 105 % of control | [5] 105 % of control | dose: 400.0 mg/kg/injection, schedule: Q01DX001 (ip), vehicle: carboxymethylcellulose (CMC) 100 % of control | [6] 105 % of control

N=c1ccccn1CC(Cl)COc1ccccc1 (stereo not drawn)
inactive: [2] 104 % of control

CC1CC2C(CC1O)C2(C)C (stereo not drawn)
inactive: dose: 100.0 mg/kg/injection, schedule: Q01DX009 (ip), vehicle: saline 97 % of control | [3] 94 % of control | dose: 200.0 mg/kg/injection, schedule: Q01DX009 (ip), vehicle: saline 101 % of control | [5] 94 % of control | dose: 400.0 mg/kg/injection, schedule: Q01DX009 (ip), vehicle: saline 106 % of control | dose: 400.0 mg/kg/injection, schedule: Q04DX003 (ip), vehicle: saline 91 % of control

Nc1nc(N)c2nc(CO)cnc2n1
inactive: [7] 98 % of control | [8] 102 % of control | dose: 50.0 mg/kg/injection, schedule: Q01DX009 (ip), vehicle: Klucel (hydroxypropylcellulose) (HPC) 101 % of control and 105 % of control | [9] 101 % of control

O=C(O)C1(Br)CC2CC1C1C2C2(Cl)C(Cl)=C(Cl)C1(Cl)C2(Cl)Cl (stereo not drawn)
inactive: dose: 75.0 mg/kg/injection, schedule: Q01DX001 (ip), vehicle: other 96 % of control | dose: 150.0 mg/kg/injection, schedule: Q01DX001 (ip), vehicle: other 96 % of control | dose: 300.0 mg/kg/injection, schedule: Q01DX001 (ip), vehicle: other 96 % of control

CCOC(=O)c1ccc(N=Cc2cnc3nc(NC(C)=O)[nH]c(=O)c3n2)cc1
inactive: [10] 103 % of control | [11] 96 % of control | [12] 103 % of control

COc1ccc(NC(c2ccco2)P(=O)(c2ccccc2)c2ccccc2)cc1 (stereo not drawn)
inactive: [9] 91 % of control | dose: 200.0 mg/kg/injection, schedule: Q01DX009 (ip), vehicle: Klucel (hydroxypropylcellulose) (HPC) 104 % of control | dose: 400.0 mg/kg/injection, schedule: Q01DX009 (ip), vehicle: Klucel (hydroxypropylcellulose) (HPC) 98 % of control

Cc1nnc(NC(=O)CCl)s1
inactive: [10] 107 % of control | [9] 98 % of control | dose: 100.0 mg/kg/injection, schedule: Q04DX003 (ip), vehicle: other 98 % of control | [11] 100 % of control | dose: 200.0 mg/kg/injection, schedule: Q04DX003 (ip), vehicle: other 106 % of control | [12] 98 % of control | dose: 400.0 mg/kg/injection, schedule: Q04DX003 (ip), vehicle: other 101 % of control

CC[N+](CC)(CC)Cc1ccccc1
inactive: dose: 6.25 mg/kg/injection, schedule: Q01DX009 (ip), vehicle: Klucel (hydroxypropylcellulose) (HPC) 104 % of control | dose: 6.25 mg/kg/injection, schedule: Q04DX003 (ip), vehicle: saline 113 % of control | [7] 107 % of control | dose: 12.5 mg/kg/injection, schedule: Q04DX003 (ip), vehicle: saline 97 % of control | dose: 25.0 mg/kg/injection, schedule: Q01DX001 (ip), vehicle: saline 96 % of control and 100 % of control | [8] 98 % of control and 100 % of control | dose: 25.0 mg/kg/injection, schedule: Q04DX003 (ip), vehicle: saline 97 % of control and 100 % of control | dose: 50.0 mg/kg/injection, schedule: Q01DX001 (ip), vehicle: saline 98 % of control and 102 % of control | [1] 98 % of control

CCOC(=O)c1occ(Cl)c1Cl
inactive: [2] 107 % of control | [4] 113 % of control

O=C(O)c1cccc(S)c1
inactive: dose: 100.0 mg/kg/injection, schedule: Q04DX002 (ip), vehicle: saline with Tween-80 113 % of control | dose: 200.0 mg/kg/injection, schedule: Q04DX002 (ip), vehicle: saline with Tween-80 113 % of control

CCOCCOC(=O)c1ccc(C(N)=NC2CCCCC2)cc1
inactive: [2] 100 % of control | [4] 102 % of control | [6] 90 % of control

CCOC(=O)C(=CNc1cccc(C)n1)C(=O)OCC
inactive: [13] 100 % of control | dose: 200.0 mg/kg/injection, schedule: Q01DX009 (ip), vehicle: saline with Tween-80 102 % of control | dose: 400.0 mg/kg/injection, schedule: Q01DX009 (ip), vehicle: saline with Tween-80 100 % of control

COc1nc(Cl)nc(Cl)c1Cl (tested in a mixture with another compound)
inactive: dose: 50.0 mg/kg/injection, schedule: Q01DX009 (ip), vehicle: other 87 % of control | dose: 100.0 mg/kg/injection, schedule: Q01DX009 (ip), vehicle: other 102 % of control

C=C(Cl)CNN1CCOCC1
inactive: dose: 25.0 mg/kg/injection, schedule: Q01DX009 (ip), vehicle: saline with Tween-80 96 % of control | dose: 25.0 mg/kg/injection, schedule: Q04DX003 (ip), vehicle: saline with Tween-80 95 % of control | dose: 50.0 mg/kg/injection, schedule: Q01DX009 (ip), vehicle: saline with Tween-80 98 % of control | dose: 50.0 mg/kg/injection, schedule: Q04DX003 (ip), vehicle: saline with Tween-80 97 % of control | [13] 114 % of control | dose: 100.0 mg/kg/injection, schedule: Q04DX003 (ip), vehicle: saline with Tween-80 98 % of control and 111 % of control | dose: 200.0 mg/kg/injection, schedule: Q04DX003 (ip), vehicle: saline with Tween-80 94 % of control

CSc1nc(Cl)c(-c2ccccc2)c(N2CC2)n1
inactive: dose: 25.0 mg/kg/injection, schedule: Q01DX Z (ip), vehicle: methylcellulose (MC) 98 % of control | dose: 50.0 mg/kg/injection, schedule: Q01DX Z (ip), vehicle: methylcellulose (MC) 90 % of control

O=C(NCc1ccccc1)NCc1ccccc1
inactive: dose: 100.0 mg/kg/injection, schedule: Q01DX001 (ip), vehicle: Klucel (hydroxypropylcellulose) (HPC) 112 % of control | dose: 200.0 mg/kg/injection, schedule: Q01DX001 (ip), vehicle: Klucel (hydroxypropylcellulose) (HPC) 97 % of control | dose: 400.0 mg/kg/injection, schedule: Q01DX001 (ip), vehicle: Klucel (hydroxypropylcellulose) (HPC) 105 % of control

CCSC1C(O)C(CO)OC1n1ccc(=O)[nH]c1=O (stereo not drawn)
inactive: dose: 100.0 mg/kg/injection, schedule: Q01DX005 (ip), vehicle: saline 92 % of control | dose: 200.0 mg/kg/injection, schedule: Q01DX005 (ip), vehicle: saline 101 % of control
